Values of other authors as cited in patent US20050148631A1, “Amino heterocyclyl inhibitors of 11-beta-hydroxy steroid dehydrogenase type 1” (AGOURON PHARMACEUTICALS, INC., priority 2003, published 2005).

What was measured:
[1] = test system: healthy human volunteers; conditions: cited from earlier work
[2] = test system: normal subjects; conditions: ingestion; cited from earlier work

Q: Which hepatic insulin sensitivity [1] does the source give for `CC1(C)[C@@H](OC(=O)CCC(=O)O)CC[C@]2(C)[C@H]3C(=O)C=C4[C@@H]5C[C@@](C)(C(=O)O)CC[C@]5(C)CC[C@@]4(C)[C@]3(C)CC[C@@H]12` [carbenoxolone] here?
A: Its hepatic insulin sensitivity is “improved”.

Q: And the “reduction of intraocular pressure” value [2]?
A: Its value is 20%.
